Legend:
Conditions in all cases: 72 h
[1] = tested on: HepG2; test: relative viability EC50 (midpoint between 100% and the lowest measured viability); higher = less toxic
[2] = tested on: Calu-3; test: as above
[3] = tested on: U2OS; test: as above
[4] = tested on: Vero E6; test: as above
[5] = tested on: Caco-2; test: as above
[6] = tested on: HepG2; test: drug sensitivity score (DSS) for viability; higher = more toxic; extreme values may be limits of the assay
[7] = tested on: Calu-3; test: as above
[8] = tested on: U2OS; test: as above
[9] = tested on: Vero E6; test: as above
[10] = tested on: Caco-2; test: as above
[11] = tested on: HepG2; test: cell viability relative to DMSO; higher = less toxic
[12] = tested on: Calu-3; test: as above
[13] = tested on: U2OS; test: as above
[14] = tested on: Vero E6; test: as above
[15] = tested on: Caco-2; test: as above

Row | Compound | relative viability EC50 [1] | relative viability EC50 [2] | relative viability EC50 [3] | relative viability EC50 [4] | relative viability EC50 [5] | drug sensitivity score [6] | drug sensitivity score [7] | drug sensitivity score [8] | drug sensitivity score [9] | drug sensitivity score [10] | cell viability ([11]; 1 nM) | cell viability ([11]; 10 nM) | cell viability ([11]; 100 nM) | cell viability ([11]; 1000 nM) | cell viability ([11]; 10000 nM) | cell viability ([12]; 1 nM) | cell viability ([12]; 10 nM) | cell viability ([12]; 100 nM) | cell viability ([12]; 1000 nM) | cell viability ([12]; 10000 nM) | cell viability ([13]; 1 nM) | cell viability ([13]; 10 nM) | cell viability ([13]; 100 nM) | cell viability ([13]; 1000 nM) | cell viability ([13]; 10000 nM) | cell viability ([14]; 1 nM) | cell viability ([14]; 10 nM) | cell viability ([14]; 100 nM) | cell viability ([14]; 1000 nM) | cell viability ([14]; 10000 nM) | cell viability ([15]; 1 nM) | cell viability ([15]; 10 nM) | cell viability ([15]; 100 nM) | cell viability ([15]; 1000 nM) | cell viability ([15]; 10000 nM)
1 | CC1=C(/C=C/C(C)=C/C=C/C(C)=C/C=C/C=C(C)/C=C/C=C(C)/C=C/C2=C(C)C(=O)[C@@H](O)CC2(C)C)C(C)(C)C[C@H](O)C1=O [astaxanthin] | > 10 µM | > 10 µM | > 10 µM | > 10 µM | > 10 µM | 0 | 0 | 0 | 0 | 3.6 | 84.3% | 102% | 98.9% | 102% | 107% | 98.9% | 97.6% | 101% | 96.4% | 99.6% | 97.8% | 104% | 100% | 93.6% | 98.4% | 102% | 96.9% | 103% | 101% | 92.1% | 103% | 109% | 84% | 84.8% | 81.9%
2 | O=C(Nc1nc(-c2cc(Cl)cs2)c(N2CCN(C3CCCCC3)CC2)s1)c1cnc(N2CCC(C(=O)O)CC2)c(Cl)c1 [avatrombopag] | > 10 µM | > 10 µM | > 10 µM | > 10 µM | > 10 µM | 0 | 0 | 0 | 0 | 0 | 99.4% | 109% | 115% | 98% | 110% | 96.2% | 100% | 93.9% | 102% | 88.9% | 103% | 95.5% | 104% | 103% | 95.1% | 100% | 95% | 102% | 102% | 92% | 94.9% | 88.7% | 102% | 105% | 107%
3 | O=C(N[C@@H](Cc1c[nH]c2ccccc12)C(=O)O)c1ccc(Cl)cc1 [benzotript] | > 10 µM | > 10 µM | > 10 µM | > 10 µM | > 10 µM | 0 | 0 | 0 | 0 | 0 | 99.7% | 98.1% | 102% | 103% | 108% | 87.8% | 99.4% | 98% | 100% | 108% | 96% | 99.5% | 94.3% | 101% | 95.9% | 104% | 99.3% | 98.1% | 102% | 107% | 99.9% | 102% | 101% | 100% | 99.4%
4 | CC1(C)CCC2=C(O1)c1ccccc1C(=O)C2=O [beta-lapachone] | 3.12 µM | > 10 µM | 2.83 µM | > 10 µM | 2.75 µM | 5.2 | 0 | 4.8 | 0 | 4.4 | 107% | 99.3% | 94.4% | 99.5% | 7.5% | 109% | 91.4% | 110% | 106% | 91.2% | 106% | 100% | 101% | 96.5% | 21.5% | 104% | 105% | 101% | 102% | 91.6% | 101% | 96.5% | 91.9% | 96.3% | 29.9%
